The values that follow come from US12466790B1, “Bis urea-based organoselenium compound and method for treating cancer” (IMAM MOHAMMAD IBN SAUD ISLAMIC UNIVERSITY, priority 2024, dated 2025).

The test system of data set [1] is breast cancer cell line (MCF7). The data set is described as follows: SRB growth inhibition assay, MCF7. Format: cell-based. As to conditions: Homo sapiens, MCF7 cells, 100 μg/mL, 48 h incubation, read-out: growth inhibition percentage. Here is the method:
(§1) The antitumor activities of the bis-(organoselanyl urea)aryl agent against all tested cell lines were evaluated by sulphorhodamine-B (SRB) assay. Briefly, cells were seeded at a density of 3×10^3 cells/well in 96-well microtiter plates. They were left to attach for 24 h before incubation with the aforementioned compound. Next, cells were treated with 100 μg/mL for bis-(organoselanyl urea)aryl agent. For each concentration, three wells were used, and incubation was continued for 48 h. DMSO was used as a control vehicle (1% v/v). At the end of incubation, cells were fixed with 20% trichloroacetic acid and stained with 0.4% SRB dye. The optical density (O.D.) of each well was measured spectrophotometrically at 570 nm using an ELISA microplate reader (TECAN Sunrise™, Germany). The mean survival fraction at each drug concentration was calculated as follows: O.D. of the treated cells/O.D. of the control cells. The IC50 (concentration that produces 50% of cell growth inhibition) value of bis-(organoselanyl urea)aryl agent was calculated using sigmoidal dose-response curve-fitting models.

In data set [2] the test system is hepatocellular carcinoma (HuH7). Kind of data set: SRB growth inhibition assay, HuH7. The class given is cell-based. As to conditions: Homo sapiens, Huh-7, HuH7 cells, 100 μg/mL, 48 h incubation, read-out: growth inhibition percentage. How it is done: as §1
Data set [3] relates to human squamous cell carcinoma of the oral tongue (HN9). Kind of data set: SRB growth inhibition assay, HN9. Format: cell-based. Conditions: HN9 cells, 100 μg/mL, 48 h incubation, read-out: growth inhibition percentage. How it is done: as §1
In data set [4] the test system is pharynx squamous carcinoma (FaDu). The data set is described as follows: SRB growth inhibition assay, FaDu. The class given is cell-based. As to conditions: Homo sapiens, FaDu cells, 100 μg/mL, 48 h incubation, read-out: growth inhibition percentage. How it is done:
as §1

Data set [5] deals with hepatocellular carcinoma (HEPG2). Kind of data set: SRB growth inhibition assay, HEPG2. The class given is cell-based. As to conditions: Homo sapiens, HEPG2 cells, 100 μg/mL, 48 h incubation, read-out: growth inhibition percentage. Here is the method:
as §1

The next data set concerns melanoma cancer (A375). Kind of data set: SRB growth inhibition assay, A375. Conditions: Homo sapiens, A-375, A375 cells, 100 μg/mL, 48 h incubation, read-out: growth inhibition percentage. The class given is cell-based. Here is the method:
as §1

Data set [6] has as its system non-small cell lung cancer (A549). Kind of data set: SRB growth inhibition assay, A549. Format: cell-based. Conditions: Homo sapiens, A549 cells, 100 μg/mL, 48 h incubation, read-out: growth inhibition percentage. Here is the method: as §1
Data set [7] has as its system colorectal carcinoma (HCT116). The data set is described as follows: SRB growth inhibition assay, HCT116. As to conditions: Homo sapiens, HCT-116, HCT116 cells, 100 μg/mL, 48 h incubation, read-out: growth inhibition percentage. Format: cell-based. Here is the method: as §1
Data set [8] concerns human skin fibroblast normal cell (HSF). As to conditions: 48 h, 100 μg/mL. Here is the method: as §1
Data set [9] has as its system normal oral epithelial cell line (OEC). As to conditions: 48 h, 100 μg/mL. Here is the method: as §1

Broadly, the inhibition is the relative decrease from the control value, in per cent. Turning to `COc1cccc2c1C(=O)c1c(O)c3c(c(O)c1C2=O)C[C@@](O)(C(=O)CO)C[C@@H]3O[C@H]1C[C@H](N)[C@H](O)[C@H](C)O1` [doxorubicin, reference compound], the inhibition at 100 µg/mL in data set [1] came to 58.6%; in data set [2] it was 68%; in data set [3], 51.7%; in [4], 79.3%; in data set [5], 55.6%; in the data set on melanoma cancer (A375), 78.2%. Also, the inhibition at 100 µg/mL in data set [6] amounted to 39.1%; in data set [7], 64.3%.
With `C[Se]c1ccc(NC(=O)Nc2ccc(Cc3ccc(NC(=O)Nc4ccc([Se]C)cc4)cc3)cc2)cc1` [HB190, 1,1′-(methylenebis(4,1-phenylene))bis(3-(4-(methylselanyl)phenyl)urea)], the inhibition at 100 µg/mL in data set [1] worked out at 67.7%; in data set [2], 88.6%; in data set [3] it was 74%; in [4] it was 77.3%; in data set [5], 76.2%; with melanoma cancer (A375) it was 66.8%. In addition, the figures for the inhibition at 100 µg/mL in data set [6] and in data set [7] were 74.4% and 85.3%, respectively. Besides, the figures for the “growth inhibition percentage (safety, normal cells)” value in [8] and in data set [9] were 9.76% and 7.32%, respectively.
